In series [1] the test system is intact GLP-1. The format is in vivo, male C57Bl/6JRj mice.
Series [2] relates to blood glucose. As to the kind of experiment: Blood glucose during OGTT with in vivo enzyme inhibition. More on the design: species or system male C57Bl/6JRj mice. To be noted: valine pyrrolidide only, mean [95% CI], p=0.0023.
The conditions of series [3]: in humans; background statement, no reference given; cited from earlier work.
The conditions of series [4]: estimated, after secretion; ref [2]; cited from earlier work.
Series [5] can be described thus: In vivo disappearance of GLP-1. More on the design: species or system male C57Bl6/JRj mice. To be noted: 800 fmol into vena cava, n=4.
The nature of series [6]: In vivo disappearance of GLP-1. More on the design: species or system male C57Bl6/JRj mice. Particulars: 800 fmol i.v. tail vein; sitagliptin 10 mg/kg oral 30 min before; Alpco kit; n=5.

Where no end group is shown, it is not given here.

With `CCOC(=O)[C@H](C)C[C@@H](Cc1ccc(-c2ccccc2)cc1)NC(=O)CCC(=O)O` [sacubitril], the “difference in AUC of intact GLP-1 versus control” value in series [1] (sacubitril alone, oral 0.3 mg/kg, 30 min before OGTT, mean [95% CI], p>0.99, n=6) turned out to be 4.0 pmol/L/min.
Take `CC(C)[C@H](N)C(=O)N1CCCC1` [valine pyrrolidide]: the “suppression in the rise of glucose at 20 minutes (difference versus control)” value in series [2] is -6.2 mmol/L. For the same molecule, the “intact GLP-1 level after the OGTT” value in series [1] (i.p. valine pyrrolidide 15 mg/kg 30 min before OGTT, Alpco kit, mean ± SD, n=5, SD) stood at 5.1 ± 0.9 pmol/L. The “intact GLP-1 level after the OGTT, at 10 minutes” value in series [1] (oral valine pyrrolidide 20.6 mg/kg 30 min before OGTT, Alpco kit, mean ± SD, n=5, SD) is 9.2 ± 6.3 pmol/L.
On to `N[C@@H](CC(=O)N1CCn2c(nnc2C(F)(F)F)C1)Cc1cc(F)c(F)cc1F` [sitagliptin, Sitagliptin], for which, in series [1] (oral sitagliptin 10 mg/kg 30 min before OGTT, Alpco kit, mean ± SD, n=6, SD), the “intact GLP-1 level after the OGTT, at 5 minutes” value was determined as 10.9 ± 3.9 pmol/L.
For “GLP-1(9–36)NH2 (EGTFTSDVSSYLEGQAAKEFIAWLVKGR-NH2; UniProt P01275 100-127, looked up, fragment)”, in series [3], the plasma half-life result is “about 5 min”.
As to `CC[C@H](C)[C@H](NC(=O)[C@H](Cc1ccccc1)NC(=O)[C@H](CCC(=O)O)NC(=O)[C@H](CCCCN)NC(=O)[C@H](C)NC(=O)[C@H](C)NC(=O)[C@H](CCC(N)=O)NC(=O)CNC(=O)[C@H](CCC(=O)O)NC(=O)[C@H](CC(C)C)NC(=O)[C@H](Cc1ccc(O)cc1)NC(=O)[C@H](CO)NC(=O)[C@H](CO)NC(=O)[C@@H](NC(=O)[C@H](CC(=O)O)NC(=O)[C@H](CO)NC(=O)[C@@H](NC(=O)[C@H](Cc1ccccc1)NC(=O)[C@@H](NC(=O)CNC(=O)[C@H](CCC(=O)O)NC(=O)[C@H](C)NC(=O)[C@@H](N)Cc1c[nH]cn1)[C@@H](C)O)[C@@H](C)O)C(C)C)C(=O)N[C@@H](C)C(=O)N[C@@H](Cc1c[nH]c2ccccc12)C(=O)N[C@@H](CC(C)C)C(=O)N[C@H](C(=O)N[C@@H](CCCCN)C(=O)NCC(=O)N[C@@H](CCCNC(=N)N)C(N)=O)C(C)C` [GLP-1(7–36)NH2], the “share of intact GLP-1 that reaches the systemic circulation” value in series [4] is 7-8%. In series [5] (isoflurane-sedated mice, no inhibitors), the “half-life, control” value is 0.79 min. The “half-life, sitagliptin” value in series [5] (isoflurane-sedated mice, sitagliptin 30 min before) was determined as 1.35 min. In series [5] (sitagliptin 30 min before), the “initial peak plasma value, sitagliptin only” value is reported as approximately 50 pmol/L. In series [6], the “calculated half-life, sitagliptin” value was 1.53 min.

These data come from doi:10.1101/2023.10.19.563029v1 (bioRxiv, 2023).
